From paper PMC8200971, “Design, Synthesis, Biological Evaluation and Silico Prediction of Novel Sinomenine Derivatives” (Molecules, 2021) come the findings set out here.

The subject of data set [1] is MCF-7 (human breast cancer cell lines). As to the kind of experiment: CCK8 cytotoxicity assay. The note with it: Homo sapiens, MCF7, 60 h; for IC50: read-out: IC50 MCF-7; for inhibition at 2.5 µM / inhibition at 25 µM: read-out: growth inhibition ratio (mean ± SD). The class given is cell-based. How it is done:
(§1) Cytotoxicity screens were performed to assess the in vitro anticancer activity of the synthesized sinomenine derivatives 6a–6l on the various cancer cell lines MCF-7, Hela, SW480, and A549, as well as on Hek293 as a normal cell line, at doses of 2.5 and 25 μM. The obtained inhibition ratios data were used to construct a heat map (Figure 3, Tables S1 and S2) in order to select compounds that exert cancer cell line-specific cytotoxicity. Then, the IC50 values of the promising compound were determined. Cisplatin was used as a reference standard. The antiproliferative activity was based on the evaluation of the percent viability using the CCK8 assay, which is a rapid and sensitive method for determining the number of viable cells in culture. In the presence of electronic coupling reagents, WST-8 can be reduced by a dehydrogenase in the mitochondria to produce a highly water-soluble orange-yellow formazan product. Its color is proportional to the proliferation of the number of viable cells and is related to cytotoxicity. Using a microplate reader to measure the OD value can indirectly reflect the number of living cells at 450 nm wavelength.
(§2) To understand structure–function relationships, these selected compounds were subjected to subsequent analyses. All six compounds (6a and 6c–6g) were further examined to determine their IC50 concentrations on the previously mentioned cell lines, and their efficacy was compared to the reference drug cisplatin. For this, six compounds and cisplatin were evaluated on Hela, MCF-7, SW480, and A549, and on noncancerous Hek293 cell lines at various concentrations for 60 h. IC50 values were calculated (Table 2).
(§3) The MCF-7 (human breast cancer cell lines), Hela (human cervical cancer cell lines), SW480 (human colon adenocarcinoma cell lines), A549 (human lung adenocarcinoma cell lines) and nontoxic normal cells Hek293 (human embryonic kidney cell lines) cells were used to measure the cytotoxicity of the 6a–6l. They were obtained from the Beijing Normal University (Beijing, China). The test cell lines were cultured in DMEM, IMDM, F12 and DMEM nutrient medium containing 10% heat-inactivated fetal bovine serum, […] and 100 units/mL penicillin in a humified, 5% (v/v) CO2 atmosphere at 37 °C.
(§4) Cell viability was estimated using the CCK8 assay. Tumor cells ([…]) viz. MCF-7, Hela, SW480, A549 and nontoxic normal cells Hek293 were seeded in medium containing Corning® 96-well tissue culture plates at confluences of […], respectively, in Incucyte ZOOM. Fresh medium (100 μL) containing different concentrations of the test sample was added after 12 h of seeding. The microtiter plates were incubated at 37 °C in a humidified incubator with 5% CO2 for 60 h. Triplicates from each concentration were used. Negative control cells were incubated without sample and cisplatin as a positive control. At the end of treatment, the numbers of viable cells were determined by the CCK8 test. In brief, the media was removed from the 96 well plates and replaced with 100 μL of fresh culture medium with 10% CCK8 solution added to each well including the untreated controls. The 96 well plates were then incubated at 37 °C and 5% CO2 for 1–4 h. Then, the absorbance was measured at 450 nm using a BMG LABTECH®-POLAR star Omega microplate reader (Ortenberg, Germany) to determine the number of viable cells, and the percentage of viability was calculated as ((ODt- ODb/ODc- ODb)) × 100%, where ODt is the mean optical density of wells treated with the tested sample, ODc is the mean optical density of wells treated with DMSO and ODb is the mean optical density of PBS wells without cells. The relation between surviving cells and drug concentrations were plotted to get the survival curve of each tumor cell line after treatment with the specified compound. […]

Data set [2] deals with SW480 (human colon adenocarcinoma cell lines). Briefly: CCK8 cytotoxicity assay. To be noted: Homo sapiens, SW480, 60 h; for IC50: read-out: IC50 SW480; for inhibition at 2.5 µM / inhibition at 25 µM: read-out: growth inhibition ratio (mean ± SD). The class given is cell-based. Here is the method: as §1, §2, §3, §4
For orientation: Tetrazolium dyes change colour on reduction, which living cells bring about.

The test system of data set [3] is Hela (human cervical cancer cell lines). As to the kind of experiment: CCK8 cytotoxicity assay. To be noted: Homo sapiens, HeLa, 60 h; for IC50: read-out: IC50 Hela; for inhibition at 2.5 µM / inhibition at 25 µM: read-out: growth inhibition ratio (mean ± SD). It is filed as cell-based. Here is the method:
as §1, §2, §3, §4

The subject of data set [4] is A549 (human lung adenocarcinoma cell lines). Briefly: CCK8 cytotoxicity assay. The class given is cell-based. To be noted: Homo sapiens, A549, 60 h; for IC50: read-out: IC50 A549; for inhibition at 2.5 µM / inhibition at 25 µM: read-out: growth inhibition ratio (mean ± SD). Here is the method: as §1, §2, §3, §4
The subject of data set [5] is Hek293 (human embryonic kidney cell lines). Briefly: CCK8 cytotoxicity assay, normal cells. It is filed as cell-based. The note with it: Homo sapiens, HEK293, 60 h; for IC50: read-out: IC50 Hek293; for inhibition at 2.5 µM / inhibition at 25 µM: read-out: growth inhibition ratio (mean ± SD). How it is done:
as §1, §2, §3, §4

By melting point is commonly meant the temperature, or range, at which the solid turns liquid. A word on the IC50: it is the concentration that inhibits the measured activity by half. `COC1=C[C@@H]2[C@@H]3Cc4c(CN5CCCC5)cc(OC)c(OC(=O)Cc5ccc(Cl)cc5Cl)c4[C@]2(CCN3C)CC1=O` [6d, (4bR,8aS,9S)-3,7-dimethoxy-11-methyl-6-oxo-1-(pyrrolidin-1-ylmethyl)-6,8a,9,10-tetrahydro-5H-9,4b-(epiminoethano)phenanthren-4-yl 2-(2,4-dichlorophenyl)acetate] registered a melting point of 82 to 86 °C. In data set [1], the IC50 turned out to be 5.73 ± 0.36 µM, the inhibition at 2.5 µM was determined as 0% and the inhibition at 25 µM was 88.6 ± 2.73%. Also, in data set [2], the IC50 stood at 6.08 ± 0.28 µM, the inhibition at 2.5 µM was 29.1 ± 6.92% and the inhibition at 25 µM worked out at 94.2 ± 3.21%. Also, in data set [3], the IC50 was 8.2 ± 0.52 µM, the inhibition at 2.5 µM was determined as 10.3 ± 4.44% and the inhibition at 25 µM came out at 93.1 ± 0.17%. In data set [4], the IC50 stood at 11.6 ± 1.61 µM, the inhibition at 2.5 µM stood at 29.59 ± 0.16% and the inhibition at 25 µM stood at 93.02 ± 0.2%. Besides, in data set [5], the IC50 is 3.46 ± 0.02 µM, the inhibition at 2.5 µM is 42.6 ± 0.84% and the inhibition at 25 µM stood at 84.6 ± 4.34%.
`COC1=C[C@@H]2[C@@H]3Cc4c(CN5CCCC5)cc(OC)c(OC(=O)Cc5cccc(Cl)c5)c4[C@]2(CCN3C)CC1=O` [6e, (4bR,8aS,9S)-3,7-dimethoxy-11-methyl-6-oxo-1-(pyrrolidin-1-ylmethyl)-6,8a,9,10-tetrahydro-5H-9,4b-(epiminoethano)phenanthren-4-yl 2-(3-chlorophenyl)acetate]: the melting point is 68 to 72 °C. Further, in data set [1], the IC50 amounted to 14.9 ± 0.15 µM, the inhibition at 2.5 µM was 6.92 ± 2.62% and the inhibition at 25 µM stood at 77.85 ± 0.45%. In addition, in data set [2], the 50% inhibitory concentration (IC50) was more than 25 µM, the inhibition at 2.5 µM was determined as 29.4 ± 7.71% and the inhibition at 25 µM was 61 ± 7.14%. In data set [3], the IC50 turned out to be 13.3 ± 0.95 µM, the inhibition at 2.5 µM came out at 3.21 ± 2.37% and the inhibition at 25 µM was found to be 80.9 ± 2.05%. Also, in data set [4], the IC50 came to 17.9 ± 0.74 µM, the inhibition at 2.5 µM was determined as 25.6 ± 1% and the inhibition at 25 µM stood at 61.06 ± 0.13%. In addition, in data set [5], the half-maximal inhibitory concentration (IC50) came out at 16.6 ± 0.64 µM, the inhibition at 2.5 µM came to 14.4 ± 2.54% and the inhibition at 25 µM was 63.3 ± 11.4%.
For `COC1=C[C@@H]2[C@@H]3Cc4c(CN5CCCC5)cc(OC)c(OC(=O)Cc5ccccc5C)c4[C@]2(CCN3C)CC1=O` [6f, (4bR,8aS,9S)-3,7-dimethoxy-11-methyl-6-oxo-1-(pyrrolidin-1-ylmethyl)-6,8a,9,10-tetrahydro-5H-9,4b-(epiminoethano)phenanthren-4-yl 2-(o-tolyl)acetate], the melting point lay within 72 to 75 °C. In data set [1], the 50% inhibitory concentration (IC50) was more than 25 µM, the inhibition at 2.5 µM came to 0% and the inhibition at 25 µM is 31.4 ± 3.72%. Besides, in data set [2], the IC50 is more than 25 µM, the inhibition at 2.5 µM worked out at 20.8 ± 5.63% and the inhibition at 25 µM is 55.7 ± 6.94%. In data set [3], the IC50 is more than 25 µM, the inhibition at 2.5 µM turned out to be 7.82 ± 4.1% and the inhibition at 25 µM was found to be 58.7 ± 2.64%. Moreover, in data set [4], the half-maximal inhibitory concentration (IC50) was found to be 25.1 ± 1.72 µM, the inhibition at 2.5 µM came to 25 ± 1.05% and the inhibition at 25 µM is 57.09 ± 0.06%. For the same molecule, in data set [5], the 50% inhibitory concentration (IC50) amounted to 10.1 ± 0.42 µM, the inhibition at 2.5 µM was 16.8 ± 2.39% and the inhibition at 25 µM came to 64.3 ± 14.6%.
The molecule `COC1=C[C@@H]2[C@@H]3Cc4c(CN5CCCC5)cc(OC)c(OC(=O)Cc5ccc(Cl)c(Cl)c5)c4[C@]2(CCN3C)CC1=O` [6g, (4bR,8aS,9S)-3,7-dimethoxy-11-methyl-6-oxo-1-(pyrrolidin-1-ylmethyl)-6,8a,9,10-tetrahydro-5H-9,4b-(epiminoethano)phenanthren-4-yl 2-(3,4-dichlorophenyl)acetate] displayed a melting point of 160 to 164 °C. In data set [1], the IC50 was more than 25 µM, the inhibition at 2.5 µM turned out to be 6.59 ± 4.98% and the inhibition at 25 µM is 34.6 ± 2.06%. For the same molecule, in data set [2], the IC50 was more than 25 µM, the inhibition at 2.5 µM is 11.8 ± 7.5% and the inhibition at 25 µM was determined as 56 ± 5.88%. Moreover, in data set [3], the IC50 came to 11.9 ± 0.6 µM, the inhibition at 2.5 µM was found to be 35.3 ± 4.37% and the inhibition at 25 µM came out at 93.85 ± 0.2%. Moreover, in data set [4], the IC50 was more than 25 µM, the inhibition at 2.5 µM is 20.3 ± 0.78% and the inhibition at 25 µM worked out at 43.9 ± 1.11%. Also, in data set [5], the half-maximal inhibitory concentration (IC50) was found to be 4.71 ± 0.48 µM, the inhibition at 2.5 µM stood at 9.72 ± 1.96% and the inhibition at 25 µM was 59.9 ± 16.9%.
Regarding `COC1=C[C@@H]2[C@@H]3Cc4c(CN5CCCC5)cc(OC)c(OC(=O)Cc5ccccc5)c4[C@]2(CCN3C)CC1=O` [6h, (4bR,8aS,9S)-3,7-dimethoxy-11-methyl-6-oxo-1-(pyrrolidin-1-ylmethyl)-6,8a,9,10-tetrahydro-5H-9,4b-(epiminoethano)phenanthren-4-yl 2-phenylacetate], the melting point is 165 to 168 °C. Moreover, in data set [1], the inhibition at 2.5 µM turned out to be 5.79 ± 10% and the inhibition at 25 µM is 0%. For the same molecule, in data set [2], the inhibition at 2.5 µM amounted to 28.2 ± 10.3% and the inhibition at 25 µM is 37.8 ± 9.83%. In addition, in data set [3], the inhibition at 2.5 µM was determined as 11.2 ± 10% and the inhibition at 25 µM was 21.2 ± 4.4%. Further, in data set [4], the inhibition at 2.5 µM worked out at 20.6 ± 0.77% and the inhibition at 25 µM worked out at 52.3 ± 0.76%. Also, in data set [5], the inhibition at 2.5 µM stood at 17.4 ± 1.49% and the inhibition at 25 µM worked out at 46 ± 22.4%.
With `COC1=C[C@@H]2[C@@H]3Cc4c(CN5CCCC5)cc(OC)c(OC(=O)Cc5ccc(OC)cc5)c4[C@]2(CCN3C)CC1=O` [6i, (4bR,8aS,9S)-3,7-dimethoxy-11-methyl-6-oxo-1-(pyrrolidin-1-ylmethyl)-6,8a,9,10-tetrahydro-5H-9,4b-(epiminoethano)phenanthren-4-yl 2-(4-methoxyphenyl)acetate], the melting point was 76 to 79 °C. Besides, in data set [1], the inhibition at 2.5 µM worked out at 11.7 ± 5.99% and the inhibition at 25 µM came to 0%. Moreover, in data set [2], the inhibition at 2.5 µM is 28.6 ± 9.02% and the inhibition at 25 µM came out at 38.9 ± 9.65%. Moreover, in data set [3], the inhibition at 2.5 µM was 7.79 ± 6.01% and the inhibition at 25 µM came to 29.2 ± 5.29%. In addition, in data set [4], the inhibition at 2.5 µM was 23.5 ± 0.76% and the inhibition at 25 µM is 51.77 ± 0.5%. Moreover, in data set [5], the inhibition at 2.5 µM turned out to be 13.3 ± 0.21% and the inhibition at 25 µM turned out to be 46.9 ± 16.7%.
`COC1=C[C@@H]2[C@@H]3Cc4c(CN5CCCC5)cc(OC)c(OC(=O)Cc5ccc([N+](=O)[O-])cc5)c4[C@]2(CCN3C)CC1=O` [6j, (4bR,8aS,9S)-3,7-dimethoxy-11-methyl-6-oxo-1-(pyrrolidin-1-ylmethyl)-6,8a,9,10-tetrahydro-5H-9,4b-(epiminoethano)phenanthren-4-yl 2-(4-nitrophenyl)acetate]: the melting point lay within 82 to 85 °C. In data set [1], the inhibition at 2.5 µM turned out to be 3.64 ± 6.3% and the inhibition at 25 µM is 1.97 ± 2.75%. Further, in data set [2], the inhibition at 2.5 µM was determined as 0% and the inhibition at 25 µM turned out to be 0.92 ± 1.34%. In data set [3], the inhibition at 2.5 µM is 0% and the inhibition at 25 µM worked out at 3.75 ± 0.91%. Further, in data set [4], the inhibition at 2.5 µM was 15.4 ± 5.6% and the inhibition at 25 µM was 38.7 ± 8.59%. Besides, in data set [5], the inhibition at 2.5 µM came out at 20.5 ± 6.76% and the inhibition at 25 µM came to 56.1 ± 7.28%.
